Patent US6294526A, “Use of flavone derivatives for induction of β-lactam-sensitivity of MRSA” (priority 1998, dated 2001)

What was measured:
[1] = test system: MRSA; test: antibacterial activity (MIC) by agar plate dilution method, MRSA strains; type: cell-based, methicillin-resistant Staphylococcus aureus; details: Staphylococcus aureus, 20 h, MRSA (20 strains); for MIC50: read-out: MIC50; for MIC: MRSA, range over strains, read-out: MIC
Procedure, shortened: (§1)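 Mueller-Hinton agar plates containing 2-fold serial β-lactam dilutions plus a fixed concentration of test sample; inoculum 10^6 CFU/ml, 37° C. for 20 hours. MIC read as concentration inhibiting growth; MIC80 and MIC50 = 80% and 50% growth inhibition. Flavones dissolved in methanol, others in 0.1 N NaOH.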

[2] = test system: MSSA; test: antibacterial activity (MIC) by agar plate dilution method, MSSA strains; type: cell-based, Methicillin-sensitive Staphylooccus aureus; details: Staphylococcus aureus, 20 h, MSSA (7 strains); for MIC50: read-out: MIC50; for MIC: MSSA, range over strains, read-out: MIC
Procedure, shortened: as §1

[3] = test system: MRSA or MSSA; test: inhibition of methicillin resistance by flavone derivatives, MRSA or MSSA; type: cell-based, Staphylococcus aureus; details: methicillin with flavone derivative, Table 4
Method: The screening of the present invention may be carried out according to the agar plate dilution method designated by the Japan Society of Chemotherapy (Chemotherapy 29(1), 76-79 (1981)). Mueller-Hinton agar base semi-synthetic medium may be used for a plate culture medium for a sensitivity test together with an inoculating bacteria solution which may be prepared by culturing bacteria to be tested at 37° C. for 20 hours diluted with 8.5% by isotonic sodium chloride solution to 10^6 CFU/ml. Diluted β-lactam solutions are prepared by two times serial dilution. 1 ml of the diluted β-lactam solution and 1 ml of a predetermined concentration of a sample to be tested are added to 8 ml of the plate culture medium for a sensitivity test. […]
Mueller-Hinton agar base semi-synthetic medium was used as a plate culture medium for the sensitivity test, and an inoculating bacteria solution was prepared by culturing bacteria to be tested at 37° C. for 20 hours and diluting with 8.5% by weight isotonic sodium chloride solution to a final concentration of 10^6 CFU/ml. […] To the resultant plate culture medium for the sensitivity test, the inoculating bacteria were inoculated using a microplanter (SAKUMASEISAKUSYO Co.), cultured for 20 hours at 37° C. and then minimum inhibition concentration (MIC) was assessed.

SMILES: O=C1c2c(O)cc(O)cc2O[C@H](c2ccc(O)c(O)c2)[C@H]1O [(+)-Taxifolin, (+)-taxifolin]
- MIC50 [1]: > 250 µg/mL
- MIC [1]: > 250 µg/mL
- MIC50 [2]: > 250 µg/mL
- MIC [2]: > 250 µg/mL
- inhibition of resistance to methicillin (in words) [3]: inhibited resistance to methicillin

SMILES: O=c1cc(-c2ccccc2)oc2ccccc12 [Flavone, flavone]
- MIC50 [1]: > 250 µg/mL
- MIC [1]: > 250 µg/mL
- MIC50 [2]: > 250 µg/mL
- MIC [2]: > 250 µg/mL
- inhibition of resistance to methicillin (in words) [3]: inhibited the most strongly
